The record followed here is patent publication US20060062725A1, “Methods for preparing metal-carborane complexes for radioimaging and radiotherapy” (priority 2004, published 2006).

The data set is described as follows: Stability of [99mTc(CO)3(OH2)3]+ prepared with the KF kit. It is filed as physicochemical. The conditions noted are these: prepared in the presence of KF. As to the method: Commercially available kits contain sodium tartrate to prevent premature decomposition of [^99mTc(CO)3(OH2)3]^+. Thinking that the chelate was interfering with the fluoride mediated complexation reaction, a kit in which KF was substituted for tartrate was prepared.

In the case of [^99mTc(CO)3(OH2)3]^+, the time stable result is on record as “greater than 6 h”.
